# Test results published in patent publication US20260109714A1, “PYRIMIDINE-FUSED RING COMPOUND, AND PREPARATION METHOD THEREFOR AND USE THEREOF” (GENFLEET THERAPEUTICS (SHANGHAI) INC., priority 2022, published 2026).
# Legend:
# [1] = system: AsPC-1 human pancreatic cancer cell with KRAS G12D mutation; experiment: Cell proliferation inhibition experiment, 3D CellTiter-Glo, AsPC-1; format: cell-based; settings: AsPC-1 cells, 3D spheroid, 5 days
# Source text: (§1) AsPC-1 was purchased from ATCC, Article No.: CRL-1682; AGS was purchased from ATCC, Article No.: CRL-1739; RPMI1640 was purchased from Gibco, Article No.: 11875-093 2235123; F12K was purchased from Gibco, Article No.: 21127-022; FBS was purchased from Gibco, Article No.: 10099-141C; the trypsin (containing EDTA) was purchased from Gibco, Article No.: 25200-072; CellTiter Glo-3D was purchased from Progema, Article No.: G9683; the 384-well spheroid plate was purchased from Corning, Article No.: 3830; the white-bottom opaque 384-well plate was purchased from Corning, Article No.: 3570; the cell counter was purchased from CHEMOMETEC, model: NC-200; the microplate reader was purchased from PerkinElmer, model: Envison;
# (§2) AsPC-1, an endogenous human pancreatic cancer cell AsPC-1 with KRAS^G12D mutation, was cultured in RPMI-1640 medium containing 10% FBS. AGS, a human gastric cancer cell line with KRAS^G12D mutation, was cultured in F-12K medium containing 10% FBS. Cells in logarithmic growth period were digested with trypsin (containing EDTA), collected and counted. 800 AsPC-1 cells/well or 400 […] were inoculated in a 384-well spheroid plate, and cultured overnight in an incubator with 5% CO2 to establish a 3D cell model. 1000× compound stock solutions with gradient concentrations of 3.16 times were prepared with DMSO, and 100-fold diluted to 10× compound stock solutions with the culture medium. The 10× compound stock solution was added to each cell culture well on the second day after cell inoculation, to give a final concentration of 1× and DMSO content of 0.1%. DMSO was used as the control, and the culture medium was used as the blank. After the compound was added, the cells were cultured for 5 days. 30 μl CellTiter-Glo working solution was added to each well, and mixed uniformly. The cells were incubated for 30 min, and allowed to stand at room temperature for 30 min. 40 μl of the mixture was transferred to a white-bottom opaque 384-well plate, and the luminescence was read on a microplate reader. The inhibition rate on cell proliferation was calculated by a formula: IR (%)=(RLU of control−RLU of compound)/(RLU of control−RLU of blank)×100%. The gradient concentrations of the compound and the corresponding inhibition rates were fitted by using XLFit four-parameter method, and the IC50 value was calculated. […] The results of some exemplary compounds are shown in Table 2 below (—means not tested).
# [2] = system: AGS p-ERK; experiment: Cell assay for p-ERK (HTRF, Advance ERK phospho-T202/Y204 kit); format: cell-based, human; settings: AGS cells (KRAS G12D), 3 hrs with compound, inhibition of p-ERK level
# Experimental: AGS was purchased from ATCC, Article No.: CRL-1739; F12K was purchased from Gibco, Article No.: 21127-022; FBS was purchased from Gibco, Article No.: 10099-141C; the trypsin (containing EDTA) was purchased from Gibco, Article No.: 25200-072; DMSO was purchased from VWRAMRESCO, Article No.: 0231-500ML; the 96-well cell culture plate was purchased from Corning, Article No.: 3599; the white-bottom opaque 96-well plate was purchased from Cisbio, Article No.: 66PL96025; Advance ERK phospho-T202/Y204 kit was purchased from Cisbio, Article No.: 64AERPEH; the cell counter was purchased from CHEMOMETEC, model: NC-200; the microplate reader was purchased from PerkinElmer, model: Envison.
# AGS, an endogenous human gastric adenocarcinoma cell line with KRAS^G12D mutation, was cultured in F12K+10% FBS medium. On the first day of the experiment, cells in logarithmic growth period were digested with trypsin (containing EDTA), collected and counted, and about 20,000 cells/well were inoculated in a 96-well cell culture plate and cultured overnight in an incubator with 5% CO2. 1000× compound stock solutions with gradient concentrations of 3.16 times were prepared with DMSO, and 200-fold diluted to 5× compound stock solutions with the above culture medium. The 5× compound stock solution was added to each cell culture well on the second day after cell inoculation, to give a final concentration of 1× and DMSO content of 0.1%. DMSO was used as experimental control. After adding the compound, the cells were continuously cultured for 3 hrs. Then, the culture medium in the well was removed, and 50 μl/well of cell lysis buffer (from Advanced ERK phospho-T202/Y204 kit, the same hereinafter) was added, and mixed uniformly. The cells were cultured for 30 min. Then 16 μl of the mixture was transferred to a white-bottom opaque 96-well plate, and 16 μl of the cell lysis buffer was added to an additional well and used as a blank. After that, 4 μl of p-ERK HTRF antibody mixed solution (from Advanced ERK Phos Pho-T202/Y204 Kit) was added to each well. After incubation for 4 hrs, the fluorescence value (RLU) of HTRF was read on a microplate reader. The inhibition rate of the compound on p-ERK level was calculated by the formula IR (%)=(RLU of control−RLU of compound)/(RLU of control−RLU of blank)×100%. The compound concentration and the corresponding inhibition rate on p-ERK level in the cells were fitted by using Prism 8 four-parameter method, and the IC50 value was calculated.
# [3] = Pharmacokinetic evaluation test in mice
# Experimental: (§3) Test objective: Male CD-1 mice were used as test animals. The drug concentrations in plasma of mice at various times were determined by LC/MS/MS after intravenous and oral administration of the test compounds. The pharmacokinetic behavior of the test compounds in mice was studied and their pharmacokinetic characteristics were evaluated.
# (§4) Test methods: test animals: 60 healthy adult male CD-1 mice, aged 6-8 weeks and weighing about 30 g, and divided into 10 groups, including IV groups (intravenous injection group, five groups), with 6 mice in each group; and PO groups (oral administration group, five groups), with 6 mice in each group.
# (§5) Preparation of drug solution: IV group: Taking 10 mL sample solution as an example, 2 mg sample was weighed, 0.5 mL DMSO and 1 mL Solutol HS 15 were sequentially added, and then 8.5 mL 6% HP-β-CD was added, and stirred ultrasonically to obtain a clear solution of 0.2 mg/mL.
# (§6) PO group 1: Taking 10 mL sample solution as an example, 10 mg sample was weighed, 0.5 mL DMSO and 1 mL Solutol HS 15 were sequentially added, and then 8.5 mL 6% HP-β-CD was added, and stirred ultrasonically to obtain a 1 mg/mL solution.
# (§7) PO group 2: A 3 mg/mL solution of the sample was prepared according to the preparation method for PO group 1.
# (§8) Administration: After overnight fasting, the mice in the IV group were administered with a volume of 5 mL/kg at a dose of 1 mg/kg.
# (§9) PO group 1: The mice were administered with a volume of 10 mL/kg at a dose of 10 mg/kg.
# (§10) PO group 2: The mice were administered with a volume of 10 mL/kg at a dose of 30 mg/kg.
# (§11) Experimental operations: Male CD-1 mice in the intravenous injection group and oral administration group were given the test compound, respectively. After that, 50 μl of blood was periodically collected into a K2EDTA anticoagulation tube at 0.0833, 0.25, 0.5, 1, 2, 4, 6, 8 and 24 hrs, and the plasma was separated by centrifugation at 4° C. and 8000 rpm for 15 min. The plasma was stored in dry ice at −80° C. 4 hrs after administration, the animals were allowed to free access to food. The contents of the test compounds in plasma of mice after intravenous and oral administration were determined by LC/MS/MS. The linear range of the method was 1-3000 ng/ml. The plasma samples were treated with acetonitrile to precipitate the protein and then analyzed.
# [4] = system: AGS human gastric cancer cell line with KRAS G12D mutation; experiment: Cell proliferation inhibition experiment, 3D CellTiter-Glo, AGS; format: cell-based; settings: AGS cells, 3D spheroid, 5 days
# Source text: as §1, §2
# [5] = in vivo; settings: male, CD-1, mouse, po, 30 mg/kg
# Experimental: as §3, §4, §5, §6, §7, §8, §9, §10, §11
# [6] = male, CD-1, mouse, plasma, po, 10 mg/kg
Compound,IC50 [1] [nM],IC50 [2] [nM],IC50 [4] [nM],"IC50 ([1]; Homo sapiens, ASPC1, 120 h) [nM]",IC50 ([2]; Homo sapiens) [nM],"IC50 ([4]; Homo sapiens, 120 h) [nM]",other results
"C#Cc1c(F)ccc2cc(O)cc(-c3nc4c5c(nc(OC[C@@]67CCCN6C[C@H](F)C7)nc5c3F)N3C[C@H]5CC[C@H](N5)[C@H]3CO4)c12 [Z131-1, 5-ethynyl-6-fluoro-4-((5aS,6S,9R)-1-fluoro-12-(((2R,7aS)-2-fluorotetrahydro-1H-pyrrolizin-7a(5H)-yl)methoxy)-5a,6,7,8,9,10-hexahydro-5H-4-oxo-3,10a,11,13,14-pentaaza-6,9-methanonaphtho[1,8-ab]hepten-2-yl)naphthalen-2-ol]",32.8,1.58,2.53,,,,"F (%) bioavailability ([3]; PO group, 10 mpk, male CD-1 mice): 0.9%; AUClast ([3]; PO group, 10 mpk, male CD-1 mice, plasma): 40.4 ng·h/mL"
"CCc1cccc2cc(O)cc(-c3nc4c5c(nc(OC[C@@]67CCCN6C[C@H](F)C7)nc5c3F)N3C[C@H]5CC[C@H](N5)[C@H]3CO4)c12 [Z140-1, 5-ethyl-4-((5aS,6S,9R)-1-fluoro-12-(((2R,7aS s)-2-fluorotetrahydro-1H-pyrrolizin-7a(5H)-yl)methoxy)-5a,6,7,8,9,10-hexahydro-5H-4-oxa-3,10a,11,13,14-pentaaza-6,9-methanonaphtho[1,8-ab]hepten-2-yl)naphthalen-2-ol]",,,,,,,"AUC(0-t) [3, 6]: 42.1 ng·h/mL; bioavailability [3, 6]: 2.33%"
"C#Cc1cccc2cc(N)cc(-c3nc4c5c(nc(OC[C@]67CCCN6CCC7=C(F)F)nc5c3F)N3C[C@H]5CC[C@H](N5)[C@H]3[C@H](C)O4)c12 [Z959, 4-((5S,5aS,6S,9R)-12-(((R)-1-(difluoromethylene)tetrahydro-1H-pyrrolizin-7a(5H)-yl)methoxy)-1-fluoro-5-methyl-5a,6,7,8,9,10-hexahydro-5H-4-oxa-3,10a,11,13,14-pentaaza-6,9-methanonaphtho[1,8-ab]hepten-2-yl)-5-ethynylnaphthalen-2-amine]",,,,7.21,1.59,7.27,
"C=C1CCN2CCC[C@]12COc1nc2c3c(nc(-c4cc(N)cc(Cl)c4C(F)(F)F)c(F)c3n1)O[C@@H](C)[C@@H]1[C@@H]3CC[C@H](CN21)N3 [Z963, 3-chloro-5-((5S,5aS,6S,9R)-1-fluoro-5-methyl-12-(((R)-1-methylenetetrahydro-1H-pyrrolizin-7a(5H)-yl)methoxy)-5a,6,7,8,9,10-hexahydro-5H-4-oxa-3,10a,11,13,14-pentaaza-6,9-methanonaphtho[1,8-ab]heptadien-2-yl)-4-(trifluoromethyl) aniline]",1.69,0.39,0.21,,,,
"[2H]C([2H])([2H])[C@@H]1Oc2nc(-c3cc(N)cc4cccc(C#C)c34)c(F)c3nc(OCC4(CN5CC[C@@H](F)C5)CC4)nc(c23)N2C[C@H]3CC[C@H](N3)[C@@H]12 [Z964, 5-ethynyl-4-((5S,5aS,6S,9R)-1-fluoro-12-((1-(((R)-3-fluoropyrrolidin-1-yl)methyl)cyclopropyl)methoxy)-5-(methyl-d3)-5a,6,7,8,9,10-hexahydro-5H-4-oxa-3,10a,11,13,14-pentaaza-6,9-methanonaphtho[1,8-ab]hepten-2-yl)naphthalen-2-amine]",,,,1.58,0.38,0.51,
"[2H]C([2H])([2H])[C@@H]1Oc2nc(-c3cc(N)cc4cccc(C#C)c34)c(F)c3nc(OC[C@@]45CCCN4CC(=C(F)F)C5)nc(c23)N2C[C@H]3CC[C@H](N3)[C@@H]12 [Z1044, 4-((5S,5aS,6S,9R)-12-(((S)-2-(difluoromethylene)tetrahydro-1H-pyrrolizin-7a(5H)-yl)methoxy)-1-fluoro-5-(methyl-d3)-5a,6,7,8,9,10-hexahydro-5H-4-oxa-3,10a,11,13,14-pentaaza-6,9-methanonaphtho[1,8-ab]hepten-2-yl)-5-ethynylnaphthalen-2-amine]",,,,0.92,0.34,0.53,
"[2H]C([2H])([2H])[C@@H]1Oc2nc(-c3cc(N)cc(Cl)c3C(F)(F)F)c(F)c3nc(OC[C@@]45CCCN4CC(=C(F)F)C5)nc(c23)N2C[C@H]3CC[C@H](N3)[C@@H]12 [Z1054, 3-chloro-5-((5S,5aS,6S,9R)-12-(((S)-2-(difluoromethylene)tetrahydro-1H-pyrrolizin-7a(5H)-yl)methoxy)-1-fluoro-5-(methyl-d3)-5a,6,7,8,9,10-hexahydro-5H-4-oxa-3,10a,11,13,14-pentaaza-6,9-methanonaphtho[1,8-ab]hepten-2-yl)-4-(trifluoromethyl) aniline]",,,,1.29,0.43,0.37,AUC(0-t) [5]: 3250 ng·h/mL; bioavailability [5]: 29.4%
"[2H]C([2H])([2H])[C@@H]1Oc2nc(-c3cc(N)cc(Cl)c3C(F)(F)F)c(F)c3nc(OC[C@]45CCCN4CCC5=C)nc(c23)N2C[C@H]3CC[C@H](N3)[C@@H]12 [Z1060, 3-chloro-5-((5S,5aS,6S,9R)-1-fluoro-5-(methyl-d3)-12-(((R)-1-methylenetetrahydro-1H-pyrrolizin-7a(5H)-yl)methoxy)-5a,6,7,8,9,10-hexahydro-5H-4-oxo-3,10a,11,13,14-pentaaza-6,9-methanonaphtho[1,8-ab]hepten-2-yl)-4-(trifluoromethyl) aniline]",,,,1.63,0.72,0.19,
"C[C@@H]1Oc2nc(-c3cc(N)cc(Cl)c3C(F)(F)F)cc3nc(OC[C@@]45CCCN4CC(=C(F)F)C5)nc(c23)N2C[C@H]3CC[C@H](N3)[C@@H]12 [Z1085, 3-chloro-5-((5S,5aS,6S,9R)-12-(((S)-2-(difluoromethylene)tetrahydro-1H-pyrrolizin-7a(5H)-yl)methoxy)-5-methyl-5a,6,7,8,9,10-hexahydro-5H-4-oxa-3,10a,11,13,14-pentaaza-6,9-methanonaphtho[1,8-ab]hepten-2-yl)-4-(trifluoromethyl) aniline]",,,,3.04,0.78,0.88,
"(5S,5aS,6S,9R)-12-((2,6-dimethyltetrahydro-1H-pyrrolizin-7a(5H)-methoxy)-2-(8-ethynyl-6-fluoronaphthalen-1-yl)-1-fluoro-5-methyl-5a,6,7,8,9,10-hexahydro-5H-4-oxa-3,10a,11,13,14-pentaaza-6,9-methanonaphtho[1,8-ab]heptene [Z551]",170,61,45.4,,,,
